# Experimental data published in US12138256B2, “Treatment of cardiopulmonary disorders” (Bayer Aktiengesellschaft, priority 2021, dated 2024).
# System: sGC (cGMP)
# Experiment: Phase I, healthy male subjects, 7 days once daily inhalation: cGMP in blood samples (C-4.1)
# Type: in vivo, human
# Procedure: Healthy White male subjects, aged 18 to 45 years and with a body mass index (BMI) above/equal 18.5 and below/equal 29.9 kg/m2 were treated in a clinical pharmacological phase I study on seven days with inhaled once daily doses of 480 μg or 1000 μg or 2000 μg (2 capsules of 1000 μg) (nominal dose) of dry powder formulations of example 2 or Placebo. The subjects inhaled the drug powder from capsules (see under D-1, e.g. tables 22 and 23) inserted into a handheld inhalation device by one deep inhalative breath. The dry powder formulation of the drug is dispersed into the airstream and fine particles are transported into the deep parts of the lung where it is intended to cause a vasodilation of the blood vessels in PH patients for a substantial reduction of increased blood pressure in the central pulmonary blood vessels in PAH patients or other subtypes of PH. This effect cannot be shown in subjects with healthy lungs. In addition inhaled drug causes a dilation of the bronchial airways and thus also improves disease states of lung diseases in PH patients with pathological bronchoconstriction. This effect was measured via bodyplethysmography as reduction of Specific Airway Resistance in healthy subjects. After the deep inhalative breath the subjects hold breath for 2 seconds, so that the dry powder drug condenses from the airstream onto the surface of the deeper lung areas where it is deposited close to its site of intended pharmacological action. The drug dissolutes over the day and equilibrates the lung via lining fluid.
# Drug activity in healthy men was controlled in the healthy subjects by analysing blood samples for cGMP, the immediate product of sGC pharmacological activation prior after the first and after the last drug inhalation of the 7 days treatment in comparison to measurements on the pretreatment day for all doses.
# This prolonged activity in comparison to systemic drug concentration is caused by the mode of administration as inhaled dry powder, that deposits drug in the deeper part of the lung leading to an active drug concentration over 24 h after a once daily inhalation.
# At 10 days after the first treatment, mean cGMP concentrations had returned close to the concentration observed at the pre-dosing day.
smiles,measurement,setting,value
"O=C(O)c1ccc(CCN(CCc2ccccc2OCc2ccc(-c3ccc(C(F)(F)F)cc3)cc2Cl)[C@H]2CCCc3nc(C(=O)O)ccc32)cc1 [example 2, (5S)-{[2-(4-Carboxyphenyl)ethyl][2-(2-{[3-chloro-4′-(trifluoromethyl)biphenyl-4-yl]methoxy}phenyl)-ethyl]amino}-5,6,7,8-tetrahydroquinoline-2-carboxylic acid]",cyclic guanosine monophosphate changes from baseline,"480 μg once daily inhaled, 0 D 02 H 00 M",1.73 ± 0.82 nmol/L
same,cyclic guanosine monophosphate changes from baseline,"480 μg once daily inhaled, 0 D 04 H 00 M",3.04 ± 1.39 nmol/L
same,cyclic guanosine monophosphate changes from baseline,"480 μg once daily inhaled, 0 D 06 H 00 M",3.33 ± 1.39 nmol/L
same,cyclic guanosine monophosphate changes from baseline,"480 μg once daily inhaled, 0 D 08 H 00 M",2.94 ± 1.38 nmol/L
same,cyclic guanosine monophosphate changes from baseline,"480 μg once daily inhaled, 0 D 12 H 00 M",2.10 ± 1.18 nmol/L
same,cyclic guanosine monophosphate changes from baseline,"480 μg once daily inhaled, 0 D 15 H 00 M",1.53 ± 1.50 nmol/L
same,cyclic guanosine monophosphate changes from baseline,"480 μg once daily inhaled, 1 D 00 H 00 M",0.84 ± 0.89 nmol/L
same,cyclic guanosine monophosphate changes from baseline,"480 μg once daily inhaled, 2 D 00 H 00 M",0.74 ± 1.59 nmol/L
same,cyclic guanosine monophosphate changes from baseline,"480 μg once daily inhaled, 3 D 00 H 00 M",1.00 ± 1.92 nmol/L
same,cyclic guanosine monophosphate changes from baseline,"480 μg once daily inhaled, 4 D 00 H 00 M",1.46 ± 1.24 nmol/L
same,cyclic guanosine monophosphate changes from baseline,"480 μg once daily inhaled, 5 D 00 H 00 M",1.50 ± 0.98 nmol/L
same,cyclic guanosine monophosphate changes from baseline,"480 μg once daily inhaled, 6 D 00 H 00 M",1.92 ± 1.21 nmol/L
same,cyclic guanosine monophosphate changes from baseline,"480 μg once daily inhaled, 7 D 00 H 00 M",1.68 ± 0.85 nmol/L
same,cyclic guanosine monophosphate changes from baseline,"480 μg once daily inhaled, 7 D 02 H 00 M",4.22 ± 2.29 nmol/L
same,cyclic guanosine monophosphate changes from baseline,"480 μg once daily inhaled, 7 D 04 H 00 M",5.39 ± 2.34 nmol/L
same,cyclic guanosine monophosphate changes from baseline,"480 μg once daily inhaled, 7 D 06 H 00 M",6.44 ± 2.26 nmol/L
same,cyclic guanosine monophosphate changes from baseline,"480 μg once daily inhaled, 7 D 08 H 00 M",5.19 ± 1.64 nmol/L
same,cyclic guanosine monophosphate changes from baseline,"480 μg once daily inhaled, 7 D 12 H 00 M",3.71 ± 1.79 nmol/L
same,cyclic guanosine monophosphate changes from baseline,"480 μg once daily inhaled, 7 D 15 H 00 M",3.04 ± 2.09 nmol/L
same,cyclic guanosine monophosphate changes from baseline,"480 μg once daily inhaled, 8 D 00 H 00 M",1.69 ± 2.65 nmol/L
same,cyclic guanosine monophosphate changes from baseline,"480 μg once daily inhaled, 8 D 12 H 00 M",0.69 ± 1.53 nmol/L
same,cyclic guanosine monophosphate changes from baseline,"480 μg once daily inhaled, 9 D 00 H 00 M",0.13 ± 1.97 nmol/L
same,cyclic guanosine monophosphate changes from baseline,"480 μg once daily inhaled, 9 D 12 H 00 M",1.10 ± 1.01 nmol/L
same,cyclic guanosine monophosphate changes from baseline,"480 μg once daily inhaled, 10 D 00 H 00 M",-0.00 ± 0.64 nmol/L
same,cyclic guanosine monophosphate changes from baseline,"480 μg, 0 D 00 H 00 M",0.11 ± 1.10 nmol/L
same,"cGMP, mean ± SD","480 μg, 0 D 00 H 00 M (baseline)",5.51 ± 1.00 nmol/L
same,"cGMP, mean ± SD","480 μg, 0 D 02 H 00 M",7.24 ± 1.25 nmol/L
same,"cGMP, mean ± SD","480 μg, 0 D 04 H 00 M",8.56 ± 1.45 nmol/L
same,"cGMP, mean ± SD","480 μg, 0 D 06 H 00 M",8.84 ± 1.35 nmol/L
same,"cGMP, mean ± SD","480 μg, 0 D 08 H 00 M",8.46 ± 1.59 nmol/L
same,"cGMP, mean ± SD","480 μg, 0 D 12 H 00 M",7.61 ± 1.01 nmol/L
same,"cGMP, mean ± SD","480 μg, 0 D 15 H 00 M",7.04 ± 1.50 nmol/L
same,"cGMP, mean ± SD","480 μg, 1 D 00 H 00 M",6.36 ± 1.10 nmol/L
same,"cGMP, mean ± SD","480 μg, 2 D 00 H 00 M",6.26 ± 2.17 nmol/L
same,"cGMP, mean ± SD","480 μg, 3 D 00 H 00 M (trough)",6.51 ± 2.62 nmol/L
same,"cGMP, mean ± SD","480 μg, 4 D 00 H 00 M (trough)",6.97 ± 1.96 nmol/L
same,"cGMP, mean ± SD","480 μg, 5 D 00 H 00 M (trough)",7.01 ± 1.72 nmol/L
same,"cGMP, mean ± SD","480 μg, 6 D 00 H 00 M (trough)",7.43 ± 1.69 nmol/L
same,"cGMP, mean ± SD","480 μg, 7 D 00 H 00 M (trough)",7.19 ± 1.47 nmol/L
same,"cGMP, mean ± SD","480 μg, 7 D 02 H 00 M",9.73 ± 3.00 nmol/L
same,"cGMP, mean ± SD","480 μg, 7 D 04 H 00 M",10.90 ± 3.12 nmol/L
same,"cGMP, mean ± SD","480 μg, 7 D 06 H 00 M",11.96 ± 2.80 nmol/L
same,"cGMP, mean ± SD","480 μg, 7 D 08 H 00 M",10.70 ± 2.27 nmol/L
same,"cGMP, mean ± SD","480 μg, 7 D 12 H 00 M",9.22 ± 2.37 nmol/L
same,"cGMP, mean ± SD","480 μg, 7 D 15 H 00 M",8.56 ± 2.80 nmol/L
same,"cGMP, mean ± SD","480 μg, 8 D 00 H 00 M",7.20 ± 3.23 nmol/L
same,"cGMP, mean ± SD","480 μg, 8 D 12 H 00 M",6.20 ± 2.00 nmol/L
same,"cGMP, mean ± SD","480 μg, 9 D 00 H 00 M",5.64 ± 2.53 nmol/L
same,"cGMP, mean ± SD","480 μg, 9 D 12 H 00 M",6.61 ± 1.80 nmol/L
same,"cGMP, mean ± SD","480 μg, 10 D 00 H 00 M",5.51 ± 1.39 nmol/L
same,"cGMP, mean ± SD","480 μg, −0 D 09 H 00 M (baseline)",5.60 ± 1.08 nmol/L
same,cyclic guanosine monophosphate changes from baseline,"480 μg, −0 D 09 H 00 M (pretreatment day)",0.20 ± 1.59 nmol/L
same,"cGMP, mean ± SD","480 μg, −0 D 12 H 00 M (baseline)",5.62 ± 1.26 nmol/L
same,cyclic guanosine monophosphate changes from baseline,"480 μg, −0 D 12 H 00 M (pretreatment day)",0.22 ± 1.17 nmol/L
same,"cGMP, mean ± SD","480 μg, −0 D 16 H 00 M (baseline)",5.81 ± 1.09 nmol/L
same,cyclic guanosine monophosphate changes from baseline,"480 μg, −0 D 16 H 00 M (pretreatment day)",0.41 ± 0.96 nmol/L
same,"cGMP, mean ± SD","480 μg, −0 D 18 H 00 M (baseline)",5.61 ± 0.71 nmol/L
same,cyclic guanosine monophosphate changes from baseline,"480 μg, −0 D 18 H 00 M (pretreatment day)",0.21 ± 1.74 nmol/L
same,"cGMP, mean ± SD","480 μg, −0 D 20 H 00 M (baseline)",5.92 ± 0.83 nmol/L
same,cyclic guanosine monophosphate changes from baseline,"480 μg, −0 D 20 H 00 M (pretreatment day)",0.52 ± 0.95 nmol/L
same,"cGMP, mean ± SD","480 μg, −0 D 22 H 00 M (baseline)",6.57 ± 1.22 nmol/L
same,cyclic guanosine monophosphate changes from baseline,"480 μg, −0 D 22 H 00 M (pretreatment day)",1.17 ± 1.00 nmol/L
same,"cGMP, mean ± SD","480 μg, −1 D 02 H 00 M (baseline)",5.40 ± 1.41 nmol/L
same,cyclic guanosine monophosphate changes from baseline,"1000 μg once daily inhaled, 0 D 02 H 00 M",3.26 ± 2.04 nmol/L
same,cyclic guanosine monophosphate changes from baseline,"1000 μg once daily inhaled, 0 D 04 H 00 M",5.64 ± 2.54 nmol/L
same,cyclic guanosine monophosphate changes from baseline,"1000 μg once daily inhaled, 0 D 06 H 00 M",6.78 ± 2.79 nmol/L
same,cyclic guanosine monophosphate changes from baseline,"1000 μg once daily inhaled, 0 D 08 H 00 M",5.94 ± 2.65 nmol/L
same,cyclic guanosine monophosphate changes from baseline,"1000 μg once daily inhaled, 0 D 12 H 00 M",4.86 ± 2.91 nmol/L
same,cyclic guanosine monophosphate changes from baseline,"1000 μg once daily inhaled, 0 D 15 H 00 M",3.70 ± 2.59 nmol/L
same,cyclic guanosine monophosphate changes from baseline,"1000 μg once daily inhaled, 1 D 00 H 00 M",1.26 ± 1.98 nmol/L
same,cyclic guanosine monophosphate changes from baseline,"1000 μg once daily inhaled, 2 D 00 H 00 M",0.33 ± 1.99 nmol/L
same,cyclic guanosine monophosphate changes from baseline,"1000 μg once daily inhaled, 3 D 00 H 00 M",2.31 ± 2.68 nmol/L
same,cyclic guanosine monophosphate changes from baseline,"1000 μg once daily inhaled, 4 D 00 H 00 M",2.86 ± 2.63 nmol/L
same,cyclic guanosine monophosphate changes from baseline,"1000 μg once daily inhaled, 5 D 00 H 00 M",3.59 ± 2.51 nmol/L
same,cyclic guanosine monophosphate changes from baseline,"1000 μg once daily inhaled, 6 D 00 H 00 M",4.32 ± 2.82 nmol/L
same,cyclic guanosine monophosphate changes from baseline,"1000 μg once daily inhaled, 7 D 00 H 00 M",4.74 ± 2.98 nmol/L
same,cyclic guanosine monophosphate changes from baseline,"1000 μg once daily inhaled, 7 D 02 H 00 M",6.93 ± 2.99 nmol/L
same,cyclic guanosine monophosphate changes from baseline,"1000 μg once daily inhaled, 7 D 04 H 00 M",10.84 ± 2.91 nmol/L
same,cyclic guanosine monophosphate changes from baseline,"1000 μg once daily inhaled, 7 D 06 H 00 M",11.79 ± 3.70 nmol/L
same,cyclic guanosine monophosphate changes from baseline,"1000 μg once daily inhaled, 7 D 08 H 00 M",11.00 ± 4.58 nmol/L
same,cyclic guanosine monophosphate changes from baseline,"1000 μg once daily inhaled, 7 D 12 H 00 M",9.19 ± 5.26 nmol/L
same,cyclic guanosine monophosphate changes from baseline,"1000 μg once daily inhaled, 7 D 15 H 00 M",8.00 ± 4.41 nmol/L
same,cyclic guanosine monophosphate changes from baseline,"1000 μg once daily inhaled, 8 D 00 H 00 M",4.47 ± 3.81 nmol/L
same,cyclic guanosine monophosphate changes from baseline,"1000 μg once daily inhaled, 8 D 12 H 00 M",2.30 ± 3.05 nmol/L
same,cyclic guanosine monophosphate changes from baseline,"1000 μg once daily inhaled, 9 D 00 H 00 M",1.38 ± 2.59 nmol/L
same,cyclic guanosine monophosphate changes from baseline,"1000 μg once daily inhaled, 9 D 12 H 00 M",1.02 ± 2.24 nmol/L
same,cyclic guanosine monophosphate changes from baseline,"1000 μg once daily inhaled, 10 D 00 H 00 M",1.42 ± 2.87 nmol/L
same,cyclic guanosine monophosphate changes from baseline,"1000 μg, 0 D 00 H 00 M",-0.11 ± 1.62 nmol/L
same,"cGMP, mean ± SD","1000 μg, 0 D 00 H 00 M (baseline)",4.91 ± 1.27 nmol/L
same,"cGMP, mean ± SD","1000 μg, 0 D 02 H 00 M",8.17 ± 1.07 nmol/L
same,"cGMP, mean ± SD","1000 μg, 0 D 04 H 00 M",10.56 ± 1.47 nmol/L
same,"cGMP, mean ± SD","1000 μg, 0 D 06 H 00 M",11.69 ± 1.86 nmol/L
same,"cGMP, mean ± SD","1000 μg, 0 D 08 H 00 M",10.86 ± 1.66 nmol/L
same,"cGMP, mean ± SD","1000 μg, 0 D 12 H 00 M",9.77 ± 2.11 nmol/L
same,"cGMP, mean ± SD","1000 μg, 0 D 15 H 00 M",8.61 ± 1.63 nmol/L
same,"cGMP, mean ± SD","1000 μg, 1 D 00 H 00 M",6.17 ± 1.05 nmol/L
same,"cGMP, mean ± SD","1000 μg, 2 D 00 H 00 M",5.24 ± 1.28 nmol/L
same,"cGMP, mean ± SD","1000 μg, 3 D 00 H 00 M (trough)",7.22 ± 2.04 nmol/L
same,"cGMP, mean ± SD","1000 μg, 4 D 00 H 00 M (trough)",7.77 ± 1.87 nmol/L
